Reference: patent US9963439B2, “Specific inhibitors of cytochrome P450 26 retinoic acid hydroxylase” (University of Washington Through its Center for …, priority 2013, dated 2018)
Read-outs that look alike come from different tables or passages of the source.

Columns and labels:
CYP26A1 = CYP26A1 (Homo sapiens (Human), UniProt O43174); experiment: CYP26A1 inhibition assay (9-cis-4-OH-RA formation from 9-cis-RA, recombinant microsomes); format: biochemical; details: for CYP26A1/CYP26B1: ratio of IC50 values, Table 2; for inhibition at 100 µM: read-out: Maximum inhibition of CYP26A1 observed
Experimental: (§1) CYP26A1 and CYP26B1 were expressed in Sf9 cells and used as microsomal fractions supplemented with rat P450 reductase expressed in Escherichia coli as described previously. Incubations were performed with 5 pmol of P450 (CYP26A1 or CYP26B1) and 10 pmol of P450 reductase. The purified rat reductase was added to CYP26A1 or CYP26B1 microsomes, and allowed to incorporate into the membrane for 10 min at room temperature. […] Compounds were dissolved in methanol or dimethyl sulfoxide, and final solvent amounts in the incubations were kept at 1%. The samples were preincubated for 5 min at 37° C. before the reaction was initiated with NADPH (final concentration 1 mM). Incubation times were 1 minute and 5 minutes for CYP26A1 and CYP26B1 incubations respectively.
The formation of 9-cis-4-OH-RA metabolite was monitored and the percent activity remaining in the presence of the inhibitor in comparison to the solvent only control was quantified. For IC50 determination, 6-8 concentrations of the inhibitor spanning below and above the predicted IC50 were tested, and each concentration was analyzed in triplicate. The IC50 values were determined by nonlinear regression using GraphPad Prism, according to equation 1:
(§2) [formula] in which 100%*(Vi/V) is the percentage of activity remaining at a given inhibitor (I) concentration, (Vi/V)max*100% is the fitted maximum percentage activity remaining, and (Vi/V)min*100% is the minimum percentage activity remaining.

CYP26B1 [1] = molecular target: T1, CYP26B1 (Homo sapiens (Human), UniProt Q9NR63); experiment: CYP26B1 inhibition assay (9-cis-4-OH-RA formation from 9-cis-RA, recombinant microsomes); format: biochemical
Experimental: as §1
The formation of 9-cis-4-OH-RA by CYP26B1 was measured by HPLC as described previously for CYP26A1. Product formation was linear from 1 minute to 8 minutes. […] Five minutes after reactions were initiated with NADPH the reactions were quenched with 5 ml of ethyl acetate, acitretin was added as an internal standard, samples extracted, evaporated to dryness, reconstituted in methanol and analyzed by HPLC as described previously. A standard curve of 9-cis-4-OH-RA was used to quantify product formation by analysis of the peak area of the primary metabolite on an HPLC.
Eighteen compounds were tested as potential inhibitors of CYP26A1 and CYP26B1. The formation of 9-cis-4-OH-RA metabolite was monitored and the percent activity remaining in the presence of the inhibitor in comparison to the solvent only control was quantified. For IC50 determination, 6-8 concentrations of the inhibitor spanning below and above the predicted IC50 were tested, and each concentration was analyzed in triplicate. The IC50 values were determined by nonlinear regression using GraphPad Prism, according to equation 1:
as §2
[formula] in which Kd is the affinity constant of the inhibitor, [I] is the concentration of inhibitor, [E] is the concentration of enzyme, and [EI] is the concentration of the enzyme-inhibitor complex.

CYP26B1 [2] = molecular target: T1, CYP26B1; experiment: Michaelis-Menten kinetics of RA hydroxylation by CYP26B1
Experimental: Incubations were performed with 5 pmol of P450 (CYP26A1 or CYP26B1) and 10 pmol of P450 reductase. The purified rat reductase was added to CYP26A1 or CYP26B1 microsomes, and allowed to incorporate into the membrane for 10 min at room temperature. […] Compounds were dissolved in methanol or dimethyl sulfoxide, and final solvent amounts in the incubations were kept at 1%. The samples were preincubated for 5 min at 37° C. before the reaction was initiated with NADPH (final concentration 1 mM). Incubation times were 1 minute and 5 minutes for CYP26A1 and CYP26B1 incubations respectively.
The formation of 9-cis-4-OH-RA by CYP26B1 was measured by HPLC as described previously for CYP26A1. Product formation was linear from 1 minute to 8 minutes. […] Five minutes after reactions were initiated with NADPH the reactions were quenched with 5 ml of ethyl acetate, acitretin was added as an internal standard, samples extracted, evaporated to dryness, reconstituted in methanol and analyzed by HPLC as described previously. A standard curve of 9-cis-4-OH-RA was used to quantify product formation by analysis of the peak area of the primary metabolite on an HPLC. The Michaelis-Menten equation was fit to the data using GraphPad Prism (GraphPad Software Inc., San Diego, Calif.), and the Km and Vmax values were obtained from this fit.

CYP2C8 = CYP2C8 (Homo sapiens (Human), UniProt P10632); experiment: Inhibition of CYP2C8 in pooled human liver microsomes (paclitaxel probe); format: in vitro ADME
Experimental: (§3) Concentrations of organic solvents were kept to <1% (v/v). All incubations were pre-incubated at 37° C. for 5 minutes prior to addition of 1 mM NADPH (final concentration). Incubations were stopped after 5 (CYP3A4) or 15 minutes (CYP2C8 and CYP2C9) with one volume (v/v) of ice-cold acetonitrile containing 0.1 μM tolbutamide as an internal standard. All samples were vortexed and centrifuged prior to LC-MS/MS analysis.
(§4) Detection of 6-hydroxypaclitaxel, 4-hydroxydiclofenac or 1′-hydroxymidazolam was achieved using a Gemini C18 2.0×30 mm 5 column (Phenomenex, Torrance, Calif.). Gradient elution (flow rate=500 μL/min) carried out using a mobile phase system consisting of (A) 5 mM ammonium formate with 0.1% formic acid and (B) acetonitrile with 0.1% formic acid. HPLC flow was diverted from the MS/MS system for the first 20 seconds to remove any non-volatile salts. Generic MS parameters included the curtain gas (10 arbitrary units), CAD gas (medium), ionspray voltage (4500 V), source temperature (450° C.) and ion source gas 1 and gas 2 (40 arbitrary units, each). Interface heaters were kept on for all analytes. Probe substrate mass transitions were identical to previously published methods. Briefly, the LC-MS/MS system utilized was comprised of an Applied Biosystems 4000 Q-Trap equipped with an electrospray ionization source (Applied Biosystems, Foster City, Calif.). The MS/MS system was coupled to two LC-20AD pumps with an in-line CBM-20A controller and DGU-20A5 solvent degasser (shinadzu, Columbia, Md.) and a LEAP CTC HTS PAL autosampler equipped with a dual-solvent self-washing system (CTC Analytics, Carrboro, N.C.). An injection volume of 20 μL was used for all analyses. Standard curves and mass spectrometry data were fit using Analyst (version 1.4; Applied Biosystems, Foster City, Calif.).

CYP3A4 = CYP3A4 (Homo sapiens (Human), UniProt P08684); experiment: Inhibition of CYP3A4 in pooled human liver microsomes (midazolam probe); format: in vitro ADME
Experimental: as §3, §4

CYP2C9 = CYP2C9 (Homo sapiens (Human), UniProt P11712); experiment: Inhibition of CYP2C9 in pooled human liver microsomes (diclofenac probe)
Experimental: as §3, §4

[3] = animal models; cited from earlier work
[4] = test system: cytochromes involved in the biosynthetic pathways of testicular, ovarian and adrenal steroids; details: Berth-Jones 2000; Bruynseels 1990; cited from earlier work
[5] = Table 3, unit inferred, read-out: CYP26A1 (IC50)
[6] = Table 3, unit inferred, read-out: CYP2681 (CYP26B1, IC50)
[7] = Table 4, acidic compounds, unit inferred, read-out: CYP26A1 (IC50)
[8] = Table 4, acidic compounds, unit inferred, read-out: CYP26B1 (IC50)
[9] = pooled human liver microsomes, paclitaxel 4 μM
[10] = read-out: CYP2C9 IC50 nM, pooled human liver microsomes, diclofenac 5 μM

T1 sequence (Q9NR63 whole entry): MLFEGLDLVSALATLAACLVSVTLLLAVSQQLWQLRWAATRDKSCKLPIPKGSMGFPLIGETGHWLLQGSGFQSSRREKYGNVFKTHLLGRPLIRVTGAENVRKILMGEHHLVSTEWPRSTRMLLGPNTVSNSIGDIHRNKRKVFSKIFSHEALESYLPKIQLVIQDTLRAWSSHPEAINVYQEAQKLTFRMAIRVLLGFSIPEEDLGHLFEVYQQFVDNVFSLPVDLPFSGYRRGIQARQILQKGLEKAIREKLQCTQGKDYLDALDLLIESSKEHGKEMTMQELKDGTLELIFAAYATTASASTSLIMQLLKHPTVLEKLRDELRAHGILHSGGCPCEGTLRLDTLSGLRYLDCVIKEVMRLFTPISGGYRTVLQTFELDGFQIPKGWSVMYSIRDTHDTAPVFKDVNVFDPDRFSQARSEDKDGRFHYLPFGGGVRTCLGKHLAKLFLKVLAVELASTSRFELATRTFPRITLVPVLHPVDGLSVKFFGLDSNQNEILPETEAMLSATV
Chain of CYP26A1 (O43174 whole entry): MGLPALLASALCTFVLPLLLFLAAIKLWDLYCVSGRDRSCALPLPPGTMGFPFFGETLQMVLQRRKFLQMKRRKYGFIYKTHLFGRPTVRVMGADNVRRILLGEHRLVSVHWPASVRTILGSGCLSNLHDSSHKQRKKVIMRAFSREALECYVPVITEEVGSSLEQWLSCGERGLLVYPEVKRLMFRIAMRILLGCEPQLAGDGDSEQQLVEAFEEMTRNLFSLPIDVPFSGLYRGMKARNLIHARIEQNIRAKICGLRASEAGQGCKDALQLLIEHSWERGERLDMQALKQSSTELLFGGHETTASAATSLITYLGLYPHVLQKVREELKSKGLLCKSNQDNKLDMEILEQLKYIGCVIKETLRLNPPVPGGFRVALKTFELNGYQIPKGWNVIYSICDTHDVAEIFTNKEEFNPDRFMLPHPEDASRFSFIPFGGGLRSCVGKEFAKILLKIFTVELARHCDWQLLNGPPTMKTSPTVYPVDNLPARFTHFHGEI
Chain of CYP2C9 (P11712 whole entry): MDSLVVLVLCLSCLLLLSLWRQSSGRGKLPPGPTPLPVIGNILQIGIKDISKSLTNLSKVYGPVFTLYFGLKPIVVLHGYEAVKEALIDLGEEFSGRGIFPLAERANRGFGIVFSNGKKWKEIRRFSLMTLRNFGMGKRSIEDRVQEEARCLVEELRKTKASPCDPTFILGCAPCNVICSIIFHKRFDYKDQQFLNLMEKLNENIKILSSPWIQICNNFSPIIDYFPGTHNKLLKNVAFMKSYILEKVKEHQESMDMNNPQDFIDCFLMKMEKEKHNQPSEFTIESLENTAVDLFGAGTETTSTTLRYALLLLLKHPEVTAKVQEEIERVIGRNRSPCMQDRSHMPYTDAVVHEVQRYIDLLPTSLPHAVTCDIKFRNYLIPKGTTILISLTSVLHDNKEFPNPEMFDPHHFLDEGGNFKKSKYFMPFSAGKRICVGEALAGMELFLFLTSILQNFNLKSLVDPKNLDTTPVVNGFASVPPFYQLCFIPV
Chain of CYP3A4 (P08684 whole entry): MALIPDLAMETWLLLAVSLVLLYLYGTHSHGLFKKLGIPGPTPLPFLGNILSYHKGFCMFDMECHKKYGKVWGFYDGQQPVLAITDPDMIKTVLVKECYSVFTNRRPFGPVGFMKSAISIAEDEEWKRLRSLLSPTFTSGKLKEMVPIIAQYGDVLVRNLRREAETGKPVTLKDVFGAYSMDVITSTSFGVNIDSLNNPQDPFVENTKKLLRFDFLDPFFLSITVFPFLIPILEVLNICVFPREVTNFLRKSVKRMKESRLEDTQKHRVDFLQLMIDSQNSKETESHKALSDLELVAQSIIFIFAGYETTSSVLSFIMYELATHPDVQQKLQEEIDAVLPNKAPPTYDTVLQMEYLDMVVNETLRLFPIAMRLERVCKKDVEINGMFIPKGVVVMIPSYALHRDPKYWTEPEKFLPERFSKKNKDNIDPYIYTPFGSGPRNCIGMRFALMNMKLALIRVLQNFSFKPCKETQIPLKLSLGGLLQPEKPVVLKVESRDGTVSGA
Chain of CYP2C8 (P10632 whole entry): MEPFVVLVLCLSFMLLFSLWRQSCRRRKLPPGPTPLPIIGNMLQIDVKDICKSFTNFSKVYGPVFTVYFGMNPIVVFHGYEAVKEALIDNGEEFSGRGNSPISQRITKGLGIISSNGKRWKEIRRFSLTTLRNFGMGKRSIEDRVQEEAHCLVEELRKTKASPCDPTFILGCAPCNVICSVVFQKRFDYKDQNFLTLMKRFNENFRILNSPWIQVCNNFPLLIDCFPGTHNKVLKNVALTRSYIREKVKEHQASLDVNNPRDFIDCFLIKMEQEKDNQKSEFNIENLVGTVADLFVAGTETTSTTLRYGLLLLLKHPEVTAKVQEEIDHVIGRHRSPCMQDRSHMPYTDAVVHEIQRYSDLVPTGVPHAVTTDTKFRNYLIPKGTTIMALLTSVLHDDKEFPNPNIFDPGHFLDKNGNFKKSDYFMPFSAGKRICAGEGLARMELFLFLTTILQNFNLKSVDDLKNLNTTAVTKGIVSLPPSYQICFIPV

`CC1(C)CCC(C)(C)c2cc(C(O)COc3ccc(C(=O)O)cc3)ccc21` (stereo not shown) showed a CYP26A1/CYP26B1 (CYP26A1) of 2.

In the case of `CC1(C)CCC(C)(C)c2cc(NC(=O)c3ccc(C(=O)O)cc3)ccc21`, the CYP26A1/CYP26B1 (CYP26A1) is reported as 1.8.

With `CC1(C)CCC(C)(C)c2cc(C3(c4ccc(C(=O)O)cc4)OCCO3)ccc21` [drawing 145] the IC50 (CYP26A1; [5]) was 3300 nM and the IC50 (CYP26B1 [1]; [6]) was 14200 nM.

`CC1(C)CCC(C)(C)c2cc(C3(c4ccc(C(=O)O)cc4)OCCO3)ccc21` [drawing 148] gave an IC50 (CYP26A1; [7]) of 7780 nM and an IC50 (CYP26B1 [1]; [8]) of 12600 nM.

For `CC1(C)CCC(C)(C)c2cc(C(=O)Nc3ccc(C(=O)O)cc3)ccc21`, the CYP26A1/CYP26B1 (CYP26A1) was 2.5.

In the case of `COC(=O)c1ccc(OC/C(=N\O)c2ccc3c(c2)C(C)(C)CCC3(C)C)cc1`, the CYP26A1/CYP26B1 (CYP26A1) is reported as 7.

With `O=C(O)CCc1ccc(Nc2ccc(O)c(C34CC5CC(CC(C5)C3)C4)c2)cc1` the IC50 (CYP26A1; Table 5, read-out: CYP26A1) was 1750 nM and the IC50 (CYP26B1 [1]; Table 5, read-out: CYP26B1) was 108 nM.

In the case of `CC1=C(/C=C/C(C)=C\C=C\C(C)=C\C(=O)O)C(C)(C)CCC1` [Example 9-cis-RA, 9-cis-RA], the “Vmax for 9-cis-4-OH-RA formation by CYP26B1” value (CYP26B1 [2]) is reported as 3.6 pmol/min/pmol P450, the “fold greater Km than atRA for CYP26B1” value (CYP26B1 [2]) is reported as 50 fold and the intrinsic clearance (CYP26B1 [2]; from Km and Vmax) is reported as 6.5 µL/min. For the same compound, the Km (CYP26B1 [2]; read-out: Km for 9-cis-4-OH-RA formation by CYP26B1, substrate 9-cis-RA 50-1000 nM, 5 min) was 0.555 µM.

With `CC1(C)CCC(C)(C)c2cc(C3(c4ccc5cc(C(=O)O)ccc5c4)OCCO3)ccc21` the IC50 (CYP26A1; [7]) was 109 nM and the IC50 (CYP26B1 [1]; [8]) was 1030 nM.

For `CC1(C)CCC(C)(C)c2cc(C3(c4ccc(/C=C/C(=O)O)cc4)SCCS3)ccc21`, the IC50 (CYP26A1; Table 5, read-out: CYP26A1) was 6 nM and the IC50 (CYP26B1 [1]; Table 5, read-out: CYP26B1) was 4400 nM.

With `CC1(C)CCC(C)(C)c2cc(C(=O)COc3ccc(C(=O)O)cc3)ccc21` the CYP26A1/CYP26B1 (CYP26A1) was 4.

Compound `CC1(C)CCC(C)(C)c2cc(C3(c4ccc(C(=O)O)cc4)SCCS3)ccc21` has an IC50 (CYP26A1; [7]) of 1280 nM and an IC50 (CYP26B1 [1]; [8]) of 1090 nM.

With `CC(C(c1ccc(Nc2nc3ccccc3s2)cc1)n1ccnc1)N(C)C` (stereo not shown) [Example R116010, R116010] the IC50 (CYP2C8; bound stated) was over 1000 nM, the IC50 (CYP2C8; [9]) was 1760 nM and the “Inhibition of CYP3A4 (in words)” value (CYP3A4) was “potent CYP3A4 inhibitors”. It also gave an IC50 (CYP2C9) of over 1000 nM and an IC50 (CYP2C9; [10]) of 5760 nM.

Work on `CC1(C)CCC(C)(C)c2cc(/C(COc3ccc(C(=O)O)cc3)=N\O)ccc21` yielded a CYP26A1/CYP26B1 (CYP26A1) of 3.

For `CC1(C)CCC(C)(C)c2cc(C3(c4ccc(CCC(=O)O)cc4)OCCO3)ccc21`, the IC50 (CYP26A1; Table 5, read-out: CYP26A1) was 340 nM and the IC50 (CYP26B1 [1]; Table 5, read-out: CYP26B1) was 14500 nM.

With `CCC(CC)[C@H](c1ccc(Nc2nc3ccccc3s2)cc1)n1cncn1` [talarozole, (R)—N-[4-[2-ethyl-1-(1H-1,2,4-triazol-1-yl)butyl]phenyl]-2-benzo-thiazolamine] the IC50 (CYP26A1; Table 5, read-out: CYP26A1) was 5.1 nM, the IC50 (CYP26B1 [1]; Table 5, read-out: CYP26B1) was 0.46 nM and the “Inhibition of CYP2C8 (in words)” value (CYP2C8; pooled human liver microsomes) was “nanomolar affinity”. For the same compound, the IC50 (CYP2C8; [9]) was 220 nM, the “Inhibition of CYP3A4 (in words)” value (CYP3A4) was “nanomolar affinity” and the “effect on concentration of atRA in vivo” value [3] was “increase the concentration of atRA in vivo”. For the same compound, the “Inhibition of CYP2C9 (in words)” value (CYP2C9; pooled human liver microsomes) was “nanomolar affinity” and the IC50 (CYP2C9; [10]) was 680 nM.

With `C/C(=C\c1ccc(C(=O)O)cc1)c1ccc2c(c1)C(C)(C)CCC2(C)C` the CYP26A1/CYP26B1 (CYP26A1) was 1.1.

`COc1ccc(-c2ccc(/C=C/C(=O)O)cc2)cc1C12CC3CC(CC(C3)C1)C2` showed an IC50 (CYP26A1; Table 5, read-out: CYP26A1) of over 25000 nM and an IC50 (CYP26B1 [1]; Table 5, read-out: CYP26B1) of over 25000 nM.

Compound `COc1ccc(Nc2ccc(CCC(=O)O)cc2)cc1C12CC3CC(CC(C3)C1)C2` has an IC50 (CYP26A1; Table 5, read-out: CYP26A1) of 51 nM and an IC50 (CYP26B1 [1]; Table 5, read-out: CYP26B1) of 51 nM.

In the case of `COc1ccc(Nc2ccc(/C=C/C(=O)O)cc2)cc1C12CC3CC(CC(C3)C1)C2`, the IC50 (CYP26A1; Table 5, read-out: CYP26A1) is reported as 729 nM and the IC50 (CYP26B1 [1]; Table 5, read-out: CYP26B1) is reported as 87 nM.

In the case of `O=C(O)/C=C/c1ccc(Nc2ccc(O)c(C34CC5CC(CC(C5)C3)C4)c2)cc1`, the IC50 (CYP26A1; Table 5, read-out: CYP26A1) is reported as 232 nM and the IC50 (CYP26B1 [1]; Table 5, read-out: CYP26B1) is reported as 95 nM.

Work on `COC(=O)c1ccc(OC/C(=N/O)c2ccc3c(c2)C(C)(C)CCC3(C)C)cc1` yielded a CYP26A1/CYP26B1 (CYP26A1) of 8.

For `CC1(C)CCSc2ccc(C#Cc3ccc(C(=O)O)cn3)cc21`, the CYP26A1/CYP26B1 (CYP26A1) was 47.

With `O=C(O)CCc1ccc(-c2ccc(O)c(C34CC5CC(CC(C5)C3)C4)c2)cc1` the IC50 (CYP26A1; Table 5, read-out: CYP26A1) was 314 nM and the IC50 (CYP26B1 [1]; Table 5, read-out: CYP26B1) was 302 nM.

Compound `CC1(C)C(=O)C(C)(C)c2cc(C(=O)Nc3ccc(C(=O)O)cc3)ccc21` has a CYP26A1/CYP26B1 (CYP26A1) of 0.6.

For `COc1ccc(-c2ccc(CCC(=O)O)cc2)cc1C12CC3CC(CC(C3)C1)C2`, the IC50 (CYP26B1 [1]; Table 5, read-out: CYP26B1) was 516 nM.

Work on `CC1(C)CCC(C)(C)c2cc(Cc3ccc(CCC(=O)O)cc3)ccc21` yielded an IC50 (CYP26A1; Table 5, read-out: CYP26A1) of over 10000 nM and an IC50 (CYP26B1 [1]; Table 5, read-out: CYP26B1) of 1660 nM.

In the case of `Clc1cccc(C(c2ccc3[nH]cnc3c2)n2ccnc2)c1` (stereo not shown) [liarozole], the IC50 (CYP26B1 [1]; Table 5, read-out: CYP26B1) is reported as 18 nM, the “Inhibition of CYP2C8 (in words)” value (CYP2C8; pooled human liver microsomes) is reported as “inhibited CYP2C8 potently” and the IC50 (CYP2C8; [9]) is reported as 480 nM. For the same compound, the “Inhibition of CYP3A4 (in words)” value (CYP3A4) was “weak inhibitor”, the “effect on concentration of atRA in vivo” value [3] was “increase the concentration of atRA in vivo” and the “inhibition of other cytochromes of steroid biosynthesis” value [4] was “also inhibits other cytochromes involved in the biosynthetic pathways of testicular, ovarian and adrenal steroids”. The “Inhibition of CYP2C9 (in words)” value (CYP2C9; pooled human liver microsomes) was “weak inhibitor” and the IC50 (CYP2C9; [10]) was 1630 nM.

For `COC(=O)c1ccc(OCC(=O)c2ccc3c(c2)C(C)(C)CCC3(C)C)cc1`, the inhibition at 100 µM (CYP26A1) was 15%.

In the case of `C=C(c1ccc(C(=O)O)cc1)c1cc2c(cc1C)C(C)(C)CCC2(C)C`, the IC50 (CYP26A1; [5]) is reported as 12300 nM and the IC50 (CYP26B1 [1]; [6]) is reported as 4000 nM.

`CC1(C)CCC(C)(C)c2cc(C3(c4ccc(/C=C/C(=O)O)cc4)OCCO3)ccc21` showed an IC50 (CYP26A1; Table 5, read-out: CYP26A1) of 239 nM and an IC50 (CYP26B1 [1]; Table 5, read-out: CYP26B1) of over 10000 nM.

With `CC1(C)CCC(C)(C)c2cc(C#Cc3ccc(C(=O)O)cc3)ccc21` the CYP26A1/CYP26B1 (CYP26A1) was 9.

In the case of `CCOC(=O)c1ccc(C#Cc2ccc3c(c2)C(C)(C)CCS3)nc1`, the inhibition at 100 µM (CYP26A1) is reported as 15%.

`CC1(C)CCC(C)(C)c2cc(C3(c4ccc5cc(C(=O)O)ccc5c4)SCCS3)ccc21` [drawing 152] showed an IC50 (CYP26A1; [7]) of 61 nM.

For `CC1(C)CCC(C)(C)c2cc(C3(c4ccc5cc(C(=O)O)ccc5c4)SCCS3)ccc21` [drawing 146], the IC50 (CYP26A1; [5]) was 61 nM and the IC50 (CYP26B1 [1]; [6]) was 1030 nM.

With `CC1=C(/C=C/C(C)=C/C=C/C(C)=C/C(=O)O)C(C)(C)CCC1` [atRA, all-trans-retinoic acid] the Km (CYP26B1 [2]; read-out: Km of atRA for CYP26B1) was 0.019 µM.
